Source: patent US20260085053A1, “BENZOFURAN DERIVATIVES AS SIK INHIBITORS AND THE USE THEREOF” (BEONE MEDICINES I GMBH, priority 2023, published 2026)

Columns and labels:
[1] = molecular target: T1, SIK3 kinase (aa59-365, Thermo Fisher) (Homo sapiens, UniProt Q9Y2K2); experiment: Biochemical activities determination for SIK3 protein (TR-FRET); conditions: 125 uM ATP, 0.5 μM STK1 substrate
T1 construct: SIK3 kinase (aa59-365, Thermo Fisher); purchased Thermo Fisher
Summary of the method: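 SIK3 (aa59-365) was preincubated with compound (0-10 μM) for 60 min at room temperature in Tris buffer pH 7.5. The reaction was then started with 125 uM ATP and 0.5 μM STK1 substrate and run 180 min at room temperature. Phospho-substrate was detected by HTRF (665/620 nm ratio), and IC50 came from a four-parameter logistic fit.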

[2] = molecular target: T2, SIK1 kinase (aa1-303, Thermo Fisher) (Homo sapiens, UniProt P57059); experiment: Biochemical activities determination for SIK1 protein (TR-FRET); conditions: 110 uM ATP, 0.5 μM STK1 substrate
T2 construct: SIK1 kinase (aa1-303, Thermo Fisher); purchased Thermo Fisher
T2 sequence (P57059 1-303): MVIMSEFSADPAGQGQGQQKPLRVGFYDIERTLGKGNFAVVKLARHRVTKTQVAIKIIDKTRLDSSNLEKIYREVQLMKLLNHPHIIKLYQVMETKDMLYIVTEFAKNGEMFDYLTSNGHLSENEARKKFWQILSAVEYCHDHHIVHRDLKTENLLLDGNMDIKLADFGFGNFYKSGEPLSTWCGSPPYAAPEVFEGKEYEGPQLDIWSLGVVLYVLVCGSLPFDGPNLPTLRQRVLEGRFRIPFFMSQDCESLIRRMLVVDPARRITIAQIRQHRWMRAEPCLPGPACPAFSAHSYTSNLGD
Summary of the method: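 TR-FRET kinase assay with SIK1 (aa1-303), 110 uM ATP, 0.5 μM STK1 substrate and 0-10 μM compound in Tris pH 7.5 with MgCl2, EGTA, DTT, Triton X-100. Enzyme preincubated with compound 60 min, reaction 180 min at room temperature; 665/620 nm ratio after overnight detection; IC50 from four-parameter logistic fit.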

[3] = molecular target: T3, SIK2 kinase (full length, Thermo Fisher) (Homo sapiens, UniProt Q9H0K1); experiment: Biochemical activities determination for SIK2 protein (TR-FRET); conditions: 80 uM ATP, 0.5 μM substrate
T3 construct: SIK2 kinase (full length, Thermo Fisher); purchased Thermo Fisher
T3 sequence (Q9H0K1 whole entry): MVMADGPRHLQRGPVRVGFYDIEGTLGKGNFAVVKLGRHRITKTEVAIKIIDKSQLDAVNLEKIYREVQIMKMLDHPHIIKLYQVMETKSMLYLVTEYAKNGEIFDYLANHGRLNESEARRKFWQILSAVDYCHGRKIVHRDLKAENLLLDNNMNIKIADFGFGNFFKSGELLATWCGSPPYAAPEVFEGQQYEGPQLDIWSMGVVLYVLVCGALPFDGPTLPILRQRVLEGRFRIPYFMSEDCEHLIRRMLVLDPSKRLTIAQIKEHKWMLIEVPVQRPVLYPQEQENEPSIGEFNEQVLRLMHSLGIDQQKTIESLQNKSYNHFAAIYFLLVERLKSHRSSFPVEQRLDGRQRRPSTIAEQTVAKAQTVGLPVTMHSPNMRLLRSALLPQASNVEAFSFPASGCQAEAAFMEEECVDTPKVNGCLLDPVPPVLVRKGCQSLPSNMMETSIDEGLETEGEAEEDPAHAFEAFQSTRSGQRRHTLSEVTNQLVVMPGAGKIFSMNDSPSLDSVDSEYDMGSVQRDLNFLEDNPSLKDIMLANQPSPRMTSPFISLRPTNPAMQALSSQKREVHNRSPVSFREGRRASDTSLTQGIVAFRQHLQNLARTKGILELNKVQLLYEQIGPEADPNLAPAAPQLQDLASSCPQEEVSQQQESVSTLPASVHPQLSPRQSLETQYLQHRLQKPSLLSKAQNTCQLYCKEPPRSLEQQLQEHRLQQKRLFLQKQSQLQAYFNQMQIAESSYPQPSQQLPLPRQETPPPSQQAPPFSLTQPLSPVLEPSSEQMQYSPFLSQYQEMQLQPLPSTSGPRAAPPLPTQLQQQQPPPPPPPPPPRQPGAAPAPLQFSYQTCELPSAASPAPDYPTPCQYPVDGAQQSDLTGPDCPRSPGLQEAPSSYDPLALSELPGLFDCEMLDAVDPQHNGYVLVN
Summary of the method: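 Full-length SIK2 preincubated 60 min with 0–10 μM compound, then reacted 180 min at room temperature with 80 uM ATP and 0.5 μM biotinylated substrate (pH 7.5 Tris/MgCl2 buffer). Phosphorylation detected by TR-FRET (665/620 nm ratio, cryptate antibody/streptavidin-XL665) after overnight incubation; IC50 from four-parameter logistic fit.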

T1 sequence (Q9Y2K2 59-365): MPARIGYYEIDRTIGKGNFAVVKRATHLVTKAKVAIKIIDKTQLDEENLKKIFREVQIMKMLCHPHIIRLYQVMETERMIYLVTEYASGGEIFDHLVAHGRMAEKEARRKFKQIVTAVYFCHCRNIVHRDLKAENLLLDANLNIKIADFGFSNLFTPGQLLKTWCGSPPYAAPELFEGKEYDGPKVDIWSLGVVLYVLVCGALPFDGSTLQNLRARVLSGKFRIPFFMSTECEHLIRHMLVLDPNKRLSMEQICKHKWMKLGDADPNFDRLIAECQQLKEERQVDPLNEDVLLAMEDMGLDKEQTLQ

SMILES	IC50 [1]	IC50 [2]	IC50 [3]
COc1cc(-c2coc3cc(OCCN4CCOCC4)ccc23)cc2c1C(=O)N(CC(F)(F)F)CC2 [Compound 58, 8-methoxy-6-(6-(2-morpholinoethoxy)benzofuran-3-yl)-2-(2,2,2-trifluoroethyl)-3,4-dihydroisoquinolin-1 (2H)-one]	391 nM	> 10000 nM	167 nM
COc1cc(-c2coc3cc(OCCN4CCCC4)ccc23)cc2c1C(=O)N(CC(F)(F)F)CC2 [Compound 59, 8-methoxy-6-(6-(2-(pyrrolidin-1-yl)ethoxy)benzofuran-3-yl)-2-(2,2,2-trifluoroethyl)-3,4-dihydroisoquinolin-1 (2H)-one]	348 nM	> 10000 nM	77 nM
COc1cc(-c2coc3cc(OCc4cncn4C)ccc23)cc2c1C(=O)N(CC(F)(F)F)CC2 [Compound 60, 8-methoxy-6-(6-((1-methyl-1H-imidazol-5-yl)methoxy)benzofuran-3-yl)-2-(2,2,2-trifluoroethyl)-3,4-dihydroisoquinolin-1 (2H)-one]	421 nM	> 10000 nM	635 nM
COc1cc(-c2coc3cc(OCC4CCCN4C)ccc23)cc2c1C(=O)N(CC(F)(F)F)CC2 (stereo not drawn) [Compound 61, 8-methoxy-6-(6-((1-methylpyrrolidin-2-yl)methoxy)benzofuran-3-yl)-2-(2,2,2-trifluoroethyl)-3,4-dihydroisoquinolin-1 (2H)-one]	322 nM	> 10000 nM	147 nM
COc1cc(-c2coc3cc(OCCN4CCCC4)ccc23)cc(OC(F)F)c1C(=O)NC1CC1 [Compound 62, N-cyclopropyl-2-(difluoromethoxy)-6-methoxy-4-(6-(2-(pyrrolidin-1-yl)ethoxy)benzofuran-3-yl)benzamide]	122 nM	> 10000 nM	76 nM
O=C1c2c(cc(-c3coc4cc(OCCN5CCCC5)ccc34)cc2OC(F)F)CCN1CC(F)(F)F [Compound 63, 8-(difluoromethoxy)-6-(6-(2-(pyrrolidin-1-yl)ethoxy)benzofuran-3-yl)-2-(2,2,2-trifluoroethyl)-3,4-dihydroisoquinolin-1 (2H)-one]	300 nM	> 10000 nM	67 nM
COc1cc(-c2coc3cc(OCCN4CCCCC4)ccc23)cc2c1C(=O)N(CC(F)(F)F)CC2 [Compound 64, 8-methoxy-6-(6-(2-(piperidin-1-yl)ethoxy)benzofuran-3-yl)-2-(2,2,2-trifluoroethyl)-3,4-dihydroisoquinolin-1 (2H)-one]	415 nM	> 10000 nM	73 nM
COc1cc(-c2coc3cc(OCCN4CCCC4)ccc23)cc2c1C(=O)N(CC#N)CC2 [Compound 65, 2-(8-methoxy-1-oxo-6-(6-(2-(pyrrolidin-1-yl)ethoxy)benzofuran-3-yl)-3,4-dihydroisoquinolin-2 (1H)-yl) acetonitrile]	313 nM	> 10000 nM	103 nM
COc1cc(-c2coc3cc(OCCN4CCCC4)ccc23)cc(OC(F)F)c1C(=O)NCC#N [Compound 66, N-(cyanomethyl)-2-(difluoromethoxy)-6-methoxy-4-(6-(2-(pyrrolidin-1-yl)ethoxy)benzofuran-3-yl)benzamide]	132 nM	6690 nM	58 nM
COc1cc(-c2coc3cc(OCCN4CCCC4)ccc23)cc(OC(F)F)c1C(=O)N[C@@H]1C[C@@H]1F [Compound 67, 2-(difluoromethoxy)-N-((1R,2S)-2-fluorocyclopropyl)-6-methoxy-4-(6-(2-(pyrrolidin-1-yl)ethoxy)benzofuran-3-yl)benzamide]	79 nM	2450 nM	23 nM
COc1cc(-c2coc3cc(OC(C)CN4CCCC4)ccc23)cc(OC(F)F)c1C(=O)N[C@@H]1C[C@@H]1F (stereo partly drawn) [Compound 68, 2-(difluoromethoxy)-N-((1R,2S)-2-fluorocyclopropyl)-6-methoxy-4-(6-((1-(pyrrolidin-1-yl)propan-2-yl)oxy)benzofuran-3-yl)benzamide]	139 nM	8180 nM	90 nM
COc1cc(-c2coc3cc(OCCN4CCOCC4)ccc23)cc(OC(F)F)c1C(=O)N[C@@H]1C[C@@H]1F [Compound 69, 2-(difluoromethoxy)-N-((1R,2S)-2-fluorocyclopropyl)-6-methoxy-4-(6-(2-morpholinoethoxy)benzofuran-3-yl)benzamide]	45 nM	1270 nM	41 nM
COc1cc(-c2coc3cc(OCCN4CCCCC4)ccc23)cc(OC(F)F)c1C(=O)N[C@@H]1C[C@@H]1F [Compound 70, 2-(difluoromethoxy)-N-((1R,2S)-2-fluorocyclopropyl)-6-methoxy-4-(6-(2-(piperidin-1-yl)ethoxy)benzofuran-3-yl)benzamide]	42 nM	2950 nM	14 nM
COc1cc(-c2coc3cc(OCCN4CC[C@@H](F)C4)ccc23)cc(OC(F)F)c1C(=O)N[C@@H]1C[C@@H]1F [Compound 71, 2-(difluoromethoxy)-N-((1R,2S)-2-fluorocyclopropyl)-4-(6-(2-((R)-3-fluoropyrrolidin-1-yl)ethoxy)benzofuran-3-yl)-6-methoxybenzamide]	39 nM	1380 nM	48 nM
COc1cc(-c2coc3cc(OCCCN4CCCC4)ccc23)cc(OC(F)F)c1C(=O)N[C@@H]1C[C@@H]1F [Compound 72, 2-(difluoromethoxy)-N-((1R,2S)-2-fluorocyclopropyl)-6-methoxy-4-(6-(3-(pyrrolidin-1-yl)propoxy)benzofuran-3-yl)benzamide]	31 nM	461 nM	6 nM
COc1cc(-c2coc3cc(OCCN(C)C)ccc23)cc(OC(F)F)c1C(=O)N[C@@H]1C[C@@H]1F [Compound 73, 2-(difluoromethoxy)-4-(6-(2-(dimethylamino)ethoxy)benzofuran-3-yl)-N-((1R,2S)-2-fluorocyclopropyl)-6-methoxybenzamide]	65 nM	3260 nM	24 nM
COc1cc(-c2coc3cc(OCCN4CC[C@H](F)C4)ccc23)cc(OC(F)F)c1C(=O)N[C@@H]1C[C@@H]1F [Compound 74, 2-(difluoromethoxy)-N-((1R,2S)-2-fluorocyclopropyl)-4-(6-(2-((S)-3-fluoropyrrolidin-1-yl)ethoxy)benzofuran-3-yl)-6-methoxybenzamide]	34 nM	1130 nM	26 nM
COc1cc(-c2coc3cc(OCCN4CCC4)ccc23)cc(OC(F)F)c1C(=O)N[C@@H]1C[C@@H]1F [Compound 75, 4-(6-(2-(azetidin-1-yl)ethoxy)benzofuran-3-yl)-2-(difluoromethoxy)-N-((1R,2S)-2-fluorocyclopropyl)-6-methoxybenzamide]	93 nM	1740 nM	16 nM
COc1cc(-c2coc3cc(OCCN4CCC(C(F)(F)F)C4)ccc23)cc(OC(F)F)c1C(=O)N[C@@H]1C[C@@H]1F (stereo partly drawn) [Compound 76, 2-(difluoromethoxy)-N-((1R,2S)-2-fluorocyclopropyl)-6-methoxy-4-(6-(2-(3-(trifluoromethyl)pyrrolidin-1-yl)ethoxy)benzofuran-3-yl)benzamide]	34 nM	1010 nM	34 nM
COc1cc(-c2coc3cc(OCCN4CCC[C@H]4C)ccc23)cc(OC(F)F)c1C(=O)N[C@@H]1C[C@@H]1F [Compound 77, 2-(difluoromethoxy)-N-((1R,2S)-2-fluorocyclopropyl)-6-methoxy-4-(6-(2-((R)-2-methylpyrrolidin-1-yl)ethoxy)benzofuran-3-yl)benzamide]	80 nM	3370 nM	27 nM
COc1cc(-c2coc3cc(OCCN4CC[C@@H](C)C4)ccc23)cc(OC(F)F)c1C(=O)N[C@@H]1C[C@@H]1F [Compound 78, 2-(difluoromethoxy)-N-((1R,2S)-2-fluorocyclopropyl)-6-methoxy-4-(6-(2-((R)-3-methylpyrrolidin-1-yl)ethoxy)benzofuran-3-yl)benzamide]	42 nM	1890 nM	19 nM
COc1cc(-c2coc3cc(OCCN4CC[C@@H](OC)C4)ccc23)cc(OC(F)F)c1C(=O)N[C@@H]1C[C@@H]1F [Compound 79, 2-(difluoromethoxy)-N-((1R,2S)-2-fluorocyclopropyl)-6-methoxy-4-(6-(2-((R)-3-methoxypyrrolidin-1-yl)ethoxy)benzofuran-3-yl)benzamide]	57 nM	2190 nM	19 nM
COc1cc(-c2coc3cc(OCCN4CCC[C@@H]4C)ccc23)cc(OC(F)F)c1C(=O)N[C@@H]1C[C@@H]1F [Compound 80, 2-(difluoromethoxy)-N-((1R,2S)-2-fluorocyclopropyl)-6-methoxy-4-(6-(2-((S)-2-methylpyrrolidin-1-yl)ethoxy)benzofuran-3-yl)benzamide]	54 nM	2850 nM	20 nM
